SMILES strings stand for the structures.

Data on one compound can be found in US20190369111A1, “MOLECULAR KINETICS EVALUATION METHOD AND SCREENING METHOD” (Tokyo University of Science Foundation, priority 2016, published 2019).

Assay [1] addresses T1, wild-type H-Ras protein (Homo sapiens, UniProt P01112).
T1 construct: an endogenous wild-type K-Ras protein and wild-type H-Ras protein in HeLa cells; endogenous in cells; host or cells: HeLa cells
The assay is described as follows: Degradation of endogenous wild-type H-Ras protein in HeLa cells, Western blot analysis. Particulars: 48 hours after addition. The format is cell-based. The procedure: (§1) HeLa cells were seeded in a 24-well plate at a cell density of 8×10^4 cells/well, and then cultured under conditions of 37° C. and 5 vol % CO2 for 16 hours.
(§2) After 16 hours from cell seeding, TUS-007 was added to HeLa cells as follows. As a medium, a serum-free medium (37° C.) in which 1 mass % L-glutamine solution (Sigma-Aldrich) was added to D-MEM (high D-glucose, phenol red, sodium pyruvate (Wako Pure Chemical Industries, Ltd.)) was used. It is noted that the L-glutamine solution was added immediately before use. A DMSO solution containing TUS-007 was mixed with the medium so that the concentration of DMSO was 1 vol %, and added to each well at 500 μL/well, and cultured under conditions of 37° C. and 5 vol % CO2. As a control, DMSO was used.
(§3) The medium was removed 48 hours after addition of TUS-007, and then PBS was added to wash the cells. […]
(§4) After electrophoresis, proteins were transferred to a PVDF membrane (Immobion™-P, Millipore) under conditions of 100 V and 2 hours using a tank-type blotting device and a transfer buffer (25 mM Tris-HCl, 195 mM glycine, 0.01% SDS, 15% methanol). […] Subsequently, the membrane was treated with a chemiluminescence reagent Immobilon™ Western (Millipore), and then chemiluminescence was detected using a lumino image analyzer LAS-3000 (FUJIFILM Corporation). […]
(In general: Immunoblotting shows a protein as a band on a membrane.)

Assay [2] concerns the target T2, endogenous wild-type K-Ras protein (Homo sapiens, UniProt P01116).
T2 construct: an endogenous wild-type K-Ras protein and wild-type H-Ras protein in HeLa cells; endogenous in cells; host or cells: HeLa cells
Briefly: Degradation of endogenous wild-type K-Ras protein in HeLa cells, Western blot analysis. The format is cell-based. Particulars: 48 hours after addition. The procedure:
as §1, §2, §3, §4

T2 sequence (P01116 1-188 isoform P01116-2): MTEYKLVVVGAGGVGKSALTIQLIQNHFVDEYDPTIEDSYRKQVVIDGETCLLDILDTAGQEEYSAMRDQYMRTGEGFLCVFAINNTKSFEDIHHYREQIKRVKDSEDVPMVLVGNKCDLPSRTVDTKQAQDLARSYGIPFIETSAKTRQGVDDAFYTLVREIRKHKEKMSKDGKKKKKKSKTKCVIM
T1 sequence (P01112 whole entry): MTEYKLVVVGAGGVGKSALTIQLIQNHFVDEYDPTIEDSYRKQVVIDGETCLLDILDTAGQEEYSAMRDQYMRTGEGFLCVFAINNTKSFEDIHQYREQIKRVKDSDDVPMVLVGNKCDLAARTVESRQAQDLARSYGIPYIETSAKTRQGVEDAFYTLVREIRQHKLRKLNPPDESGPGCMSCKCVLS

`CC[C@@H](C)[C@H](NC(=O)CCCCCCNC(=O)[C@H](CC(C)C)NC(=O)CNC(=O)c1cc(Cl)ccc1Cl)C(=O)Nc1ccc2[nH]c(Cc3c[nH]c4ccccc34)nc2c1` [TUS-007]: the “amount of endogenous wild-type H-Ras protein” value in assay [1] is reported as “reduced”. Besides, the “amount of endogenous wild-type K-Ras protein” value in assay [2] is “reduced”.
